Test system: Influenza A virus
Test: Antiviral activity against drug-resistant Influenza A virus A/M2-V27A mutant assessed as viral growth inhibition
Assay type: functional, organism-based

SMILES | IC50 [µM]
NC1CC[Si]2(CCCC2)CC1 | 96.3
NC1CCC2(CCCC2)CC1 | 319

Source: ChEMBL document CHEMBL5096153, “Spirocyclic Scaffolds in Medicinal Chemistry” (J Med Chem, 2021)
